Measurements from article PMC7614683, “A small molecule PI3Kα activator for cardioprotection and neuroregeneration” (Nature, 2023).
Like-named read-outs stand apart in the source and are kept apart here.

Columns and labels:
Test in all cases: SelectScreen Z-LYTE kinase activity assay (SI Table 6)
Format in all cases: biochemical
[1] = biological target: protein kinases of the Z-LYTE panel (Homo sapiens, UniProt P45983); conditions: MAPK8 (JNK1), 1000 nM, [ATP] 100 μM
Method in brief: (§1)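 Compound 1938 counterscreened at 1 μM against 133 protein and 7 lipid kinases in the SelectScreen panel, using Adapta, LanthaScreen binding and Z-LYTE formats as applicable.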

[2] = biological target: T1, protein kinases of the Z-LYTE panel (Homo sapiens, UniProt O14757)
T1 sequence (O14757 1-476): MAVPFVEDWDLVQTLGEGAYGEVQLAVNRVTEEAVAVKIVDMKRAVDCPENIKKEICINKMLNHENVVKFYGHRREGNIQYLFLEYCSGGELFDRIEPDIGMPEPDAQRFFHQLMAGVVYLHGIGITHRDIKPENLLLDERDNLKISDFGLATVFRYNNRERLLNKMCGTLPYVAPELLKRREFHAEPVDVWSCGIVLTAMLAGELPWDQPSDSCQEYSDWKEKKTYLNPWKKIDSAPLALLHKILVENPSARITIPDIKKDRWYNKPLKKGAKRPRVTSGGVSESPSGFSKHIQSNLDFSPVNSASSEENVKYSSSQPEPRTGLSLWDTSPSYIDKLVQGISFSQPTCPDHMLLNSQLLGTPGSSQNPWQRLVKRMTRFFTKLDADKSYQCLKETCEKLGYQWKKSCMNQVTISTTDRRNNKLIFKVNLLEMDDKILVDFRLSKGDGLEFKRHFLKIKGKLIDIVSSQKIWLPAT
Method in brief: as §1

[3] = biological target: protein kinases of the Z-LYTE panel (Homo sapiens, UniProt P16591)
Method in brief: as §1

[4] = biological target: protein kinases of the Z-LYTE panel (Homo sapiens, UniProt P08069)
Method in brief: as §1

[5] = biological target: protein kinases of the Z-LYTE panel (Homo sapiens, UniProt Q05397)
Method in brief: as §1

[6] = biological target: protein kinases of the Z-LYTE panel (Homo sapiens, UniProt P07332)
Method in brief: as §1

[7] = biological target: protein kinases of the Z-LYTE panel (Homo sapiens, UniProt O60674)
Method in brief: as §1

[8] = biological target: protein kinases of the Z-LYTE panel (Homo sapiens, UniProt Q16288)
Method in brief: as §1

[9] = biological target: protein kinases of the Z-LYTE panel (Homo sapiens, UniProt P17612)
Method in brief: as §1

[10] = biological target: T2, protein kinases of the Z-LYTE panel (Homo sapiens, UniProt P51955)
T2 sequence (P51955 1-445): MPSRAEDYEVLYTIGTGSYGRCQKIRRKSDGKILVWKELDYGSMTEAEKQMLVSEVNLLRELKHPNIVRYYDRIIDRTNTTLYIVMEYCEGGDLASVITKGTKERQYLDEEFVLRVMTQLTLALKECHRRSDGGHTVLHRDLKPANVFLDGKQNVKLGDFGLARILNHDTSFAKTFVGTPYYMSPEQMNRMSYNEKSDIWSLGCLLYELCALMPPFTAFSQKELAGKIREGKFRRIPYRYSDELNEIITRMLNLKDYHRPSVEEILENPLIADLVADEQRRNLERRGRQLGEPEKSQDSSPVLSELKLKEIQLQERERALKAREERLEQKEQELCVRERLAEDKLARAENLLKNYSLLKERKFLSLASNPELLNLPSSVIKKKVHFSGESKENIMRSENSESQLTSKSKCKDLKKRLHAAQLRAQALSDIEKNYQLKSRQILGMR
Method in brief: as §1

[11] = biological target: protein kinases of the Z-LYTE panel (Homo sapiens, UniProt P49840)
Method in brief: as §1

Chain of protein kinases of the Z-LYTE panel (Homo sapiens, UniProt P45983) (P45983 whole entry): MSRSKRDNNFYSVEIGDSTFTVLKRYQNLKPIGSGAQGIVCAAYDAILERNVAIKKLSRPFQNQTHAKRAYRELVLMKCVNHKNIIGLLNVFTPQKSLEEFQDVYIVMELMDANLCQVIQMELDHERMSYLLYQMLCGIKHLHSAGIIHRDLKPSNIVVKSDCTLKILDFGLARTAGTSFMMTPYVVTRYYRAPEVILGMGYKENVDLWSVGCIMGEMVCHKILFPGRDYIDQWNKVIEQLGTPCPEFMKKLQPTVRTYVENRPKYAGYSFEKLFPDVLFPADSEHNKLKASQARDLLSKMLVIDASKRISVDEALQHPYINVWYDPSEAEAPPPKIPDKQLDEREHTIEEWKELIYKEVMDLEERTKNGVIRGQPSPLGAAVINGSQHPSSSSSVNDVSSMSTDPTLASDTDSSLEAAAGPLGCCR
Chain of protein kinases of the Z-LYTE panel (Homo sapiens, UniProt Q16288) (Q16288 32-839): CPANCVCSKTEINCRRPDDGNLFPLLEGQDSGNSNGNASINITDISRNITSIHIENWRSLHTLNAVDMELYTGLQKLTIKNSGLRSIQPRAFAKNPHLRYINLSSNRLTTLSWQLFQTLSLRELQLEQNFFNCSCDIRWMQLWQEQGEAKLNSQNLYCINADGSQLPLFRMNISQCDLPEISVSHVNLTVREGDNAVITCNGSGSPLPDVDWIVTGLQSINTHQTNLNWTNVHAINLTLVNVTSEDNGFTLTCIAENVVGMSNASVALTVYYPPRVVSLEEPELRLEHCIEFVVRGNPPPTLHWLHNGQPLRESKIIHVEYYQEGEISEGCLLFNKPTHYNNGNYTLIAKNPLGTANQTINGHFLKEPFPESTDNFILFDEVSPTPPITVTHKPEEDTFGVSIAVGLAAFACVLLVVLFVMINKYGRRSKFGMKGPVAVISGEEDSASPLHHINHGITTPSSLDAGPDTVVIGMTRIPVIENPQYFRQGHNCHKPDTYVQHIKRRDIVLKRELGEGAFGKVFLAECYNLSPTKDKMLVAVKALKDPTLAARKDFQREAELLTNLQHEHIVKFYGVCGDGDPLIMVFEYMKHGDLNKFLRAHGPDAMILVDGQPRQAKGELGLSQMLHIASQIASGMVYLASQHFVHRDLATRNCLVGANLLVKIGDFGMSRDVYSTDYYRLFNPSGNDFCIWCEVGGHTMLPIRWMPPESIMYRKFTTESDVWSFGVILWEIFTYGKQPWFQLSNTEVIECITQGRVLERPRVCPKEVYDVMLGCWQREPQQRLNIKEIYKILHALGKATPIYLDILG
Chain of protein kinases of the Z-LYTE panel (Homo sapiens, UniProt P16591) (P16591 whole entry): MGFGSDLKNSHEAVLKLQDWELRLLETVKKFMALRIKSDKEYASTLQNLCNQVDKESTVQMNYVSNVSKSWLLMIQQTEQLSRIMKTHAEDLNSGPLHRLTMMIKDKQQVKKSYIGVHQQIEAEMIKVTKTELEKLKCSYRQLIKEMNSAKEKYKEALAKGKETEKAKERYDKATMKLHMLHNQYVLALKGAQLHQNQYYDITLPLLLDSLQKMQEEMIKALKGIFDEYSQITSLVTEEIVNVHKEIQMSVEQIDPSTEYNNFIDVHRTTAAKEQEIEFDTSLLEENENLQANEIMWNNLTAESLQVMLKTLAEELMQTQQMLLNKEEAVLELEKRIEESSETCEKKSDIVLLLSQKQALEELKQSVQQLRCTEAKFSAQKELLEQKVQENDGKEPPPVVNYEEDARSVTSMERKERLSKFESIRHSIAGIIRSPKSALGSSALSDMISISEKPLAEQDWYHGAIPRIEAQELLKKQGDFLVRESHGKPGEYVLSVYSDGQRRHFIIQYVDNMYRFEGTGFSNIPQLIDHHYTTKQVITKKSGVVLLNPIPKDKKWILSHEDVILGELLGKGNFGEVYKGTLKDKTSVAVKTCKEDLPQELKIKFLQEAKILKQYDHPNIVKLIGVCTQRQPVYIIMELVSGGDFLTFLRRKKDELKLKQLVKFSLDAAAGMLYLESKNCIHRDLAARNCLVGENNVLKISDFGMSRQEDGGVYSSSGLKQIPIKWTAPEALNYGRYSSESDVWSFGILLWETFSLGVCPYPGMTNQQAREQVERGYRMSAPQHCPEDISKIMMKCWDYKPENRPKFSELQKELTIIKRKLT
Chain of protein kinases of the Z-LYTE panel (Homo sapiens, UniProt P08069) (P08069 31-1367): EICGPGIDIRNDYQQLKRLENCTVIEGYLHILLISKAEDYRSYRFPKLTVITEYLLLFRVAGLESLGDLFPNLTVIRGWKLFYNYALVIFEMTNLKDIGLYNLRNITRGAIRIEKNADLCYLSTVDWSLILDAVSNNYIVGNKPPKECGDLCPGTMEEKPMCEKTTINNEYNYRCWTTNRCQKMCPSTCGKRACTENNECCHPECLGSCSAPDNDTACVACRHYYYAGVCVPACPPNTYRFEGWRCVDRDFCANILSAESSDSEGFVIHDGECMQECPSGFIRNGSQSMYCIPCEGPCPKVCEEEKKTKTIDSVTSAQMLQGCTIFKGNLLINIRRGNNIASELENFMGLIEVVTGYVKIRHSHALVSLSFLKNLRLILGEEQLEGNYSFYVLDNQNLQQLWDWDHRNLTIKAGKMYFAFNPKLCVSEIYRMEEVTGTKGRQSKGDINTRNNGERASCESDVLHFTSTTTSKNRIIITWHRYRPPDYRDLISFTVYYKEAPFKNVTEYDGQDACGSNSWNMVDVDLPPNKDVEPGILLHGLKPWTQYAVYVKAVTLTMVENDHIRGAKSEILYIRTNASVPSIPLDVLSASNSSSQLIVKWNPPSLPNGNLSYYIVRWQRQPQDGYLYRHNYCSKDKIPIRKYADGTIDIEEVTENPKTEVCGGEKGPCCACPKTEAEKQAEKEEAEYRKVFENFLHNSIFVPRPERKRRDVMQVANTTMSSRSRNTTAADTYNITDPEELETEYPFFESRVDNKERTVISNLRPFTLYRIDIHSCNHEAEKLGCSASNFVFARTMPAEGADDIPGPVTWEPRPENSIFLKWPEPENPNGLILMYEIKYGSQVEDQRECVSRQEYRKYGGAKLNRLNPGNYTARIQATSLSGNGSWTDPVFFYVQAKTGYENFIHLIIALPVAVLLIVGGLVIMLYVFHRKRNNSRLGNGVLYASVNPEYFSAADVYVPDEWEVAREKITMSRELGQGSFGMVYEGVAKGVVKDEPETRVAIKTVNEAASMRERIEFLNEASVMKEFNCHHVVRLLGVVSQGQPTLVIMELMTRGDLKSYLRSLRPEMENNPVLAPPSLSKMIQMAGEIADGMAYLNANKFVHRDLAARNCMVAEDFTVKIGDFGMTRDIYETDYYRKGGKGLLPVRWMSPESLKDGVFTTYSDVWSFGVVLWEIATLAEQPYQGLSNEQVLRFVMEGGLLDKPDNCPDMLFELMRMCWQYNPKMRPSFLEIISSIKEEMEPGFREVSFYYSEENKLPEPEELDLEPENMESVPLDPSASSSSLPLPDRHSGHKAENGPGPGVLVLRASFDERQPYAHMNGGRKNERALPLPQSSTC
Chain of protein kinases of the Z-LYTE panel (Homo sapiens, UniProt O60674) (O60674 whole entry): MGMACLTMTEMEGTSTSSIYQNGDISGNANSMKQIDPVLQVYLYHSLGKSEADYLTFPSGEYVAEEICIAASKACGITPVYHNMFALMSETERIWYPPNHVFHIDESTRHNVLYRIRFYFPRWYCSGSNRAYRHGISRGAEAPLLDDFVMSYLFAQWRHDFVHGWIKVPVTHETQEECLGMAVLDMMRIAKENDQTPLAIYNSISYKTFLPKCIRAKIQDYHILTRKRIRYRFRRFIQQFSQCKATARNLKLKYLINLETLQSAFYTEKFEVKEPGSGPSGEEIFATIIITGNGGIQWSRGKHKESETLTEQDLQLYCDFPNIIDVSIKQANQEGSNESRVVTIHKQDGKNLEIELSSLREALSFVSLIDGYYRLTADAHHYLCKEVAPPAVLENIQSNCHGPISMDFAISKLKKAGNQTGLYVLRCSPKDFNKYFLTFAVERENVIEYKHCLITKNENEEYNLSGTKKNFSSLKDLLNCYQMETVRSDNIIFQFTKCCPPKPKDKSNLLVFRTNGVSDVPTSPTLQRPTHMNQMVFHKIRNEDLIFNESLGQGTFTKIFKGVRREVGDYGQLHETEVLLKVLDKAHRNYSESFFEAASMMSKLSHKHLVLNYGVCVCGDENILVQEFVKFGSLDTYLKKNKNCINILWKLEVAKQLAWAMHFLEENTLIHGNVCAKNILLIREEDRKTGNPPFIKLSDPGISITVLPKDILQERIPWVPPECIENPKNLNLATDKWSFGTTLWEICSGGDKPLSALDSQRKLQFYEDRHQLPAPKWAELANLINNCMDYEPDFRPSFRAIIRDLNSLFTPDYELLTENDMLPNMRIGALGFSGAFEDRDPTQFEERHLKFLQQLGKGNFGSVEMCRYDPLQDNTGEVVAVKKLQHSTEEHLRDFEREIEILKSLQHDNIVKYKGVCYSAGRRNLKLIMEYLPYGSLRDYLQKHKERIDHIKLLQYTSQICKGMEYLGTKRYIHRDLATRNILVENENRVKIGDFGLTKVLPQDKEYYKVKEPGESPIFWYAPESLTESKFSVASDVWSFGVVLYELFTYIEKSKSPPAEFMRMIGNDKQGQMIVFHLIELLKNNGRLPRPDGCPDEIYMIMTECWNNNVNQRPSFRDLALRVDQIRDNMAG
Chain of protein kinases of the Z-LYTE panel (Homo sapiens, UniProt P49840) (P49840 whole entry): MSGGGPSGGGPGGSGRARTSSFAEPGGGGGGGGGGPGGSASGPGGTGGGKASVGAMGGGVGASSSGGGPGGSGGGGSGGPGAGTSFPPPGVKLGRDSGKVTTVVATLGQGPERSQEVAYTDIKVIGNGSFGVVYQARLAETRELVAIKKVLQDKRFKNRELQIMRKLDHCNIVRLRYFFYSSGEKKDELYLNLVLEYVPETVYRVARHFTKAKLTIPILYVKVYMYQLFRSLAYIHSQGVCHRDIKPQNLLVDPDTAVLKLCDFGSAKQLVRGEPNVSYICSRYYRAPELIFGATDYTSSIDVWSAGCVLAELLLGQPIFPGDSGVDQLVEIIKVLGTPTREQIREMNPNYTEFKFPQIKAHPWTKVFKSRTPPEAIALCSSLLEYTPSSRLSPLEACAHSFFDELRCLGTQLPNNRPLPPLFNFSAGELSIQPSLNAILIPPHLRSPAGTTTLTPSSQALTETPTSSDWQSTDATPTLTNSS

CCN1CCN(c2ccc(Nc3cc(Nc4cccc5c4N(C(C)=O)CC5)ccn3)cc2)CC1 [Compound 1938]
inhibition at 1 µM ([1]; read-out: % Inhibition Point 1): 28%
inhibition at 1 µM ([1]; read-out: % Inhibition Point 2): 32%
inhibition at 1 µM ([1]; read-out: % Inhibition mean): 30%
inhibition at 1 µM ([2]; read-out: % Inhibition Point 1): 2%
inhibition at 1 µM ([2]; read-out: % Inhibition Point 2): -3.79%
inhibition at 1 µM ([2]; read-out: % Inhibition mean): -0.889%
inhibition at 1 µM ([3]; read-out: % Inhibition Point 1): -5.31%
inhibition at 1 µM ([3]; read-out: % Inhibition Point 2): -2.44%
inhibition at 1 µM ([3]; read-out: % Inhibition mean): -4%
inhibition at 1 µM ([4]; read-out: % Inhibition Point 1): 5.5%
inhibition at 1 µM ([4]; read-out: % Inhibition Point 2): 5.33%
inhibition at 1 µM ([4]; read-out: % Inhibition mean): 5.41%
inhibition at 1 µM ([5]; read-out: % Inhibition Point 1): 47%
inhibition at 1 µM ([5]; read-out: % Inhibition Point 2): 47%
inhibition at 1 µM ([5]; read-out: % Inhibition mean): 47%
inhibition at 1 µM ([6]; read-out: % Inhibition Point 1): 7%
inhibition at 1 µM ([6]; read-out: % Inhibition Point 2): 8%
inhibition at 1 µM ([6]; read-out: % Inhibition mean): 7.57%
inhibition at 1 µM ([7]; read-out: % Inhibition Point 1): 6.6%
inhibition at 1 µM ([7]; read-out: % Inhibition Point 2): 9%
inhibition at 1 µM ([7]; read-out: % Inhibition mean): 8%
inhibition at 1 µM ([8]; read-out: % Inhibition Point 1): 12%
inhibition at 1 µM ([8]; read-out: % Inhibition Point 2): 14%
inhibition at 1 µM ([8]; read-out: % Inhibition mean): 13%
inhibition at 1 µM ([9]; read-out: % Inhibition Point 1): 3%
inhibition at 1 µM ([9]; read-out: % Inhibition Point 2): 5%
inhibition at 1 µM ([9]; read-out: % Inhibition mean): 4%
inhibition at 1 µM ([10]; read-out: % Inhibition Point 1): -6%
inhibition at 1 µM ([10]; read-out: % Inhibition Point 2): -5%
inhibition at 1 µM ([10]; read-out: % Inhibition mean): -5.54%
inhibition at 1 µM ([11]; read-out: % Inhibition Point 1): 0.632%
inhibition at 1 µM ([11]; read-out: % Inhibition Point 2): 0.0257%
inhibition at 1 µM ([11]; read-out: % Inhibition mean): 0.329%
